Source: ChEMBL document CHEMBL4138123, “Design, synthesis and biological evaluation of novel pyrazolochalcones as potential modulators of PI3K/Akt/mTOR pathway and inducers of apoptosis in breast cancer cells” (Eur J Med Chem, 2017)

Columns and labels:
Type in all cases: functional
SF-539 = assay: Cytotoxicity against human SF539 cells assessed as cell growth at 100 uM after 48 hrs by sulforhodamine B assay relative to control; details: SF-539, 48 h, read-out: Activity
UACC-62 = assay: Cytotoxicity against human UACC62 cells assessed as cell growth at 0.1 uM after 48 hrs by sulforhodamine B assay relative to control; details: UACC-62, 48 h, read-out: Activity
K562 [1] = assay: Cytotoxicity against human K562 cells assessed as cell growth at 100 uM after 48 hrs by sulforhodamine B assay relative to control; details: K562, 48 h, read-out: Activity
NCI-H460 = assay: Cytotoxicity against human NCI-H460 cells assessed as cell growth at 0.01 uM after 48 hrs by sulforhodamine B assay relative to control; details: NCI-H460, 48 h, read-out: Activity
ACHN = assay: Cytotoxicity against human ACHN cells assessed as cell growth at 100 uM after 48 hrs by sulforhodamine B assay relative to control; details: read-out: Activity
BT-549 [2] = assay: Cytotoxicity against human BT549 cells assessed as cell growth at 0.01 uM after 48 hrs by sulforhodamine B assay relative to control; details: BT-549, 48 h, read-out: Activity
HT-29 = assay: Cytotoxicity against human HT-29 cells assessed as cell growth at 100 uM after 48 hrs by sulforhodamine B assay relative to control; details: HT-29, 48 h, read-out: Activity
SNB-19 = assay: Cytotoxicity against human SNB19 cells assessed as growth inhibition after 48 hrs by sulforhodamine B assay; details: SNB-19, 48 h; for CC50: read-out: LC50 (the source's name)
TK-10 = assay: Cytotoxicity against human TK10 cells assessed as cell growth at 1 uM after 48 hrs by sulforhodamine B assay relative to control; details: TK-10, 48 h, read-out: Activity
OVCAR-8 = assay: Cytotoxicity against human OVCAR8 cells assessed as cell growth at 1 uM after 48 hrs by sulforhodamine B assay relative to control; details: OVCAR-8, 48 h, read-out: Activity
U-251 = assay: Cytotoxicity against human U251 cells assessed as growth inhibition after 48 hrs by sulforhodamine B assay; details: U-251, 48 h
IGROV-1 [3] = assay: Cytotoxicity against human IGROV1 cells assessed as cell growth at 0.01 uM after 48 hrs by sulforhodamine B assay relative to control; details: IGROV-1, 48 h, read-out: Activity
SK-OV-3 = assay: Cytotoxicity against human SKOV3 cells assessed as cell growth at 0.01 uM after 48 hrs by sulforhodamine B assay relative to control; details: SK-OV-3, 48 h, read-out: Activity
M14 = assay: Cytotoxicity against human M14 cells assessed as cell growth at 100 uM after 48 hrs by sulforhodamine B assay relative to control; details: M14, 48 h, read-out: Activity
K562 [4] = assay: Cytotoxicity against human K562 cells assessed as cell growth at 0.1 uM after 48 hrs by sulforhodamine B assay relative to control; details: K562, 48 h, read-out: Activity
OVCAR-5 = assay: Cytotoxicity against human OVCAR5 cells assessed as cell growth at 0.1 uM after 48 hrs by sulforhodamine B assay relative to control; details: OVCAR-5, 48 h, read-out: Activity
A549 = assay: Cytotoxicity against human A549/ATCC cells assessed as cell growth at 0.1 uM after 48 hrs by sulforhodamine B assay relative to control; details: A549, 48 h, read-out: Activity
HCC 2998 = assay: Cytotoxicity against human HCC2998 cells assessed as cell growth at 0.01 uM after 48 hrs by sulforhodamine B assay relative to control; details: HCC 2998, 48 h, read-out: Activity
COLO 205 = assay: Cytotoxicity against human COLO205 cells assessed as cell growth at 1 uM after 48 hrs by sulforhodamine B assay relative to control; details: COLO 205, 48 h, read-out: Activity
NCI-H23 [5] = assay: Cytotoxicity against human NCI-H23 cells assessed as cell growth at 0.1 uM after 48 hrs by sulforhodamine B assay relative to control; details: NCI-H23, 48 h, read-out: Activity
SF-268 = assay: Cytotoxicity against human SF268 cells assessed as cell growth at 0.1 uM after 48 hrs by sulforhodamine B assay relative to control; details: SF-268, 48 h, read-out: Activity
BT-549 [6] = assay: Cytotoxicity against human BT549 cells assessed as growth inhibition after 48 hrs by sulforhodamine B assay; details: BT-549, 48 h
DU-145 = assay: Cytotoxicity against human DU145 cells assessed as cell growth at 100 uM after 48 hrs by sulforhodamine B assay relative to control; details: DU-145, 48 h, read-out: Activity
SR = assay: Cytotoxicity against human SR cells assessed as cell growth at 0.01 uM after 48 hrs by sulforhodamine B assay relative to control; details: read-out: Activity
IGROV-1 [7] = assay: Cytotoxicity against human IGROV1 cells assessed as cell growth at 10 uM after 48 hrs by sulforhodamine B assay relative to control; details: IGROV-1, 48 h, read-out: Activity
786-0 = assay: Cytotoxicity against human 786-0 cells assessed as growth inhibition after 48 hrs by sulforhodamine B assay; details: 786-0, 48 h
IGROV-1 [8] = assay: Cytotoxicity against human IGROV1 cells assessed as cell growth at 1 uM after 48 hrs by sulforhodamine B assay relative to control; details: IGROV-1, 48 h, read-out: Activity
IGROV-1 [9] = assay: Cytotoxicity against human IGROV1 cells assessed as cell growth at 0.1 uM after 48 hrs by sulforhodamine B assay relative to control; details: IGROV-1, 48 h, read-out: Activity
RPMI-8226 [10] = assay: Cytotoxicity against human RPMI8226 cells assessed as cell growth at 1 uM after 48 hrs by sulforhodamine B assay relative to control; details: RPMI-8226, 48 h, read-out: Activity
PC-3 = assay: Cytotoxicity against human PC3 cells assessed as cell growth at 0.1 uM after 48 hrs by sulforhodamine B assay relative to control; details: PC-3, 48 h, read-out: Activity
UO-31 = assay: Cytotoxicity against human UO31 cells assessed as growth inhibition after 48 hrs by sulforhodamine B assay; details: UO-31, 48 h
NCI-H23 [11] = assay: Cytotoxicity against human NCI-H23 cells assessed as cell growth at 1 uM after 48 hrs by sulforhodamine B assay relative to control; details: NCI-H23, 48 h, read-out: Activity
SK-MEL-28 = assay: Cytotoxicity against human SK-MEL-28 cells assessed as cell growth at 100 uM after 48 hrs by sulforhodamine B assay relative to control; details: SK-MEL-28, 48 h, read-out: Activity
RPMI-8226 [12] = assay: Cytotoxicity against human RPMI8226 cells assessed as cell growth at 10 uM after 48 hrs by sulforhodamine B assay relative to control; details: RPMI-8226, 48 h, read-out: Activity
SW-620 = assay: Cytotoxicity against human SW620 cells assessed as cell growth at 0.1 uM after 48 hrs by sulforhodamine B assay relative to control; details: SW-620, 48 h, read-out: Activity
CCRF-CEM = assay: Cytotoxicity against human CCRF-CEM cells assessed as cell growth at 0.01 uM after 48 hrs by sulforhodamine B assay relative to control; details: read-out: Activity

COc1ccc(-c2cc(/C=C/C(=O)c3ccc(OC)c(OC)c3)[nH]n2)cc1
growth at 100 µM (SF-539): -99% | growth at 0.1 µM (UACC-62): 93% | growth at 100 µM (K562 [1]): -26% | growth at 0.01 µM (NCI-H460): 100% | growth at 100 µM (ACHN): -98% | growth at 0.01 µM (BT-549 [2]): 100% | growth at 100 µM (HT-29): -81% | GI50 (SNB-19): 1880 nM | TGI (SNB-19): 5.28 µM | CC50 (SNB-19): 19.6 µM | growth at 1 µM (TK-10): 103% | growth at 1 µM (OVCAR-8): 75% | GI50 (U-251): 1110 nM | LC50 (U-251): 4.97 µM | TGI (U-251): 2.34 µM | growth at 0.01 µM (IGROV-1 [3]): 97% | growth at 0.01 µM (SK-OV-3): 109% | growth at 100 µM (M14): -99% | growth at 0.1 µM (K562 [4]): 108% | growth at 0.1 µM (OVCAR-5): 89% | growth at 0.1 µM (A549): 90% | growth at 0.01 µM (HCC 2998): 100% | growth at 1 µM (COLO 205): 95% | growth at 0.1 µM (NCI-H23 [5]): 101% | growth at 0.1 µM (SF-268): 99% | GI50 (BT-549 [6]): 1680 nM | LC50 (concentration killing 50% of cells) (BT-549 [6]): 7.4 µM | TGI (BT-549 [6]): 3.53 µM | growth at 100 µM (DU-145): -80% | growth at 0.01 µM (SR): 100% | growth at 10 µM (IGROV-1 [7]): -60% | GI50 (786-0): 1600 nM | LC50 (786-0): 5.96 µM | TGI (786-0): 3.09 µM | growth at 1 µM (IGROV-1 [8]): 77% | growth at 0.1 µM (IGROV-1 [9]): 91% | growth at 1 µM (RPMI-8226 [10]): 8% | growth at 0.1 µM (PC-3): 91% | GI50 (UO-31): 1170 nM | LC50 (UO-31): 5.1 µM | TGI (UO-31): 2.44 µM | growth at 1 µM (NCI-H23 [11]): 98% | growth at 100 µM (SK-MEL-28): -100% | growth at 10 µM (RPMI-8226 [12]): -56% | growth at 0.1 µM (SW-620): 99% | growth at 0.01 µM (CCRF-CEM): 102%

COc1cc(-c2cc(/C=C/C(=O)c3ccc4c(c3)OCO4)[nH]n2)cc(OC)c1OC
growth at 100 µM (SF-539): -83% | growth at 0.1 µM (UACC-62): 96% | growth at 100 µM (K562 [1]): -10% | growth at 0.01 µM (NCI-H460): 104% | growth at 100 µM (ACHN): -69% | growth at 0.01 µM (BT-549 [2]): 94% | growth at 100 µM (HT-29): -73% | TGI (SNB-19): > 100 µM | CC50 (SNB-19): > 100 µM | growth at 1 µM (TK-10): 97% | growth at 1 µM (OVCAR-8): 91% | LC50 (U-251): 59.5 µM | TGI (U-251): 5.45 µM | growth at 0.01 µM (IGROV-1 [3]): 98% | growth at 0.01 µM (SK-OV-3): 103% | growth at 100 µM (M14): 22% | growth at 0.1 µM (K562 [4]): 102% | growth at 0.1 µM (OVCAR-5): 91% | growth at 0.1 µM (A549): 98% | growth at 0.01 µM (HCC 2998): 104% | growth at 1 µM (COLO 205): 93% | growth at 0.1 µM (NCI-H23 [5]): 93% | growth at 0.1 µM (SF-268): 90% | LC50 (concentration killing 50% of cells) (BT-549 [6]): > 100 µM | growth at 100 µM (DU-145): -15% | growth at 0.01 µM (SR): 106% | growth at 10 µM (IGROV-1 [7]): 29% | LC50 (786-0): > 100 µM | TGI (786-0): 5.82 µM | growth at 1 µM (IGROV-1 [8]): 99% | growth at 0.1 µM (IGROV-1 [9]): 97% | growth at 1 µM (RPMI-8226 [10]): 36% | growth at 0.1 µM (PC-3): 99% | LC50 (UO-31): 26.3 µM | TGI (UO-31): 5.44 µM | growth at 1 µM (NCI-H23 [11]): 97% | growth at 100 µM (SK-MEL-28): -16% | growth at 10 µM (RPMI-8226 [12]): -41% | growth at 0.1 µM (SW-620): 96% | growth at 0.01 µM (CCRF-CEM): 94%
